Assay results reported in US20150150765A1, “VOLATILE OIL FOR COSMETICS” (NOF Corporation, priority 2012, published 2015).

Tests used:
[1] = evaluation of barrier property (evaporated water quantity, Tewameter); format: in vivo; details: inside human forearm, two hours after applying 10 μL; blank = 100%; below 100% = improvement
Protocol: [Evaluation of Barrier Property]
With the volatile oil for external preparations for skin of the present invention, an evaporated water quantity in a stratum corneum was measured by the method shown below, and the evaporated water quantity (barrier property) was evaluated.
(Measuring Equipment) Tewameter™210 (from Courage+Kahazaka Co., Ltd.)
(§1) (Measuring Conditions) Temperature of 20° C., Humidity of 40%
(Testing Method) Samples are applied inside a human forearm, and an evaporated water quantity is measured after two hours.
(§2) (Applying Various Oils and Preparing Tests)
(§3) (1) The measurement site of a subject is washed with neutral detergent and tap water and then dried. The subject goes in the constant temperature and humidity chamber 30 min. before measurement to allow the measurement site to get used to the environment inside the chamber.
(2) Before applying samples, an evaporated water quantity is measured at a site to be applied that is marked in a circle 1 cm in diameter. […]
(4) The evaporated water quantity is measured at the measurement site two hours after being applied.
(Assessment) With the evaporated water quantity at measurement sites with no oil treatment (blanks) as 100%, the evaporated water quantity was evaluated after being treated with each sample. […]

[2] = evaluation of smoothness of skin (MIU friction resistance of skin surface); format: in vivo; details: coefficient of friction of skin, inside upper arm, before oil treatment = 100%; below 100% = improvement
Protocol: (§4) [Evaluation of Smoothness]
With the volatile oil for external preparations for skin of the present invention, coefficients of friction were measured by the following method, and the improvement of smoothness when applied to skin was evaluated.
Method of Evaluating Smoothness (Improvement after Treating Skin with Each Sample)
(§5) (Evaluation) MIU (Resistance: μ): Friction resistance of skin surface (Measuring Equipment) Friction tester (from Kato Tech Co., Ltd.) (Measuring Conditions) Measurement environment at 20° C.; 40% of Humidity; Constant temperature and humidity chamber; Measurement site: Inside upper arm; Contactor: Silicon rubber; Load: 25 gf
as §2, §3
(2) Coefficients of friction at sites to be applied are measured before applying samples. […]
(4) After the samples are applied, the coefficients of friction at applied sites are measured every thirty minutes.
(Assessment) With the coefficient of friction at measurement sites before oil treatment as 100%, smoothness was evaluated after being treated with each sample. […]

[3] = evaluation of smoothness of hair (MIU friction resistance of hair surface); set-up: species or system human; details: coefficient of friction of bleached hair, hair untreated with oil = 100%; below 100% = improvement; 20° C., 40% humidity
Protocol: as §4
With the volatile oil for hair cosmetics of the present invention, coefficients of friction were measured by the method shown below, and the improvement of smoothness, when applied to hair, was evaluated.
Method of Evaluating Smoothness (Improvement after Treating Bleached Hair with Each Sample)
as §5, with “hair” for “skin”, “Number of hair for measurement: ten;” for “Measurement site: Inside upper arm;”, “gf (Hair Employed) Bleached healthy human hair that was purchased” for “gf”
as §2
(§6) (1) One hair is picked out of the bundle of human hair. Each sample is dropped onto an index finger cushion from a syringe, and is blended with a thumb.
(§7) (2) The picked hair is pinched between the index finger and the thumb, and is coated with a sample from its root to the end.
(3) After the sample is coated, excess sample is wiped off with a waste cloth made of paper (Trade Name: Kim Wipes). […]
(Assessment) With the coefficient of friction of hair untreated with oil as 100%, smoothness is evaluated after being treated with each sample. […]

[4] = evaluation of moisture retention (amount of moisture in stratum corneum, SKICON-200EX); format: in vivo; details: inside human forearm, two hours after applying 10 μL; blank = 100%; above 100% = improvement
Protocol: [Evaluation of Moisture Retention]
With the volatile oil for external preparations for skin of the present invention, the amount of moisture in a stratum corneum was measured by the method shown below, and the amount of moisture (moisture retention) was evaluated.
(Measuring Equipment) SKICON-200EX (from I.B.S. Co., Ltd.)
as §1
(Testing Method) Samples are applied inside a human forearm, and the amount of moisture is measured after two hours.
as §2, §3
(2) Before applying samples, the amount of moisture is measured at a site to be applied that is marked in a circle 1 cm in diameter.
(3) Samples are dropped by 10 μL with a micropipette onto a measurement site that is marked in a circle with 1 cm in diameter, and are applied to skin at the marking site.
(4) The amount of moisture is measured at the measurement site two hours after being applied.
(Assessment) With the amount of water at measurement sites with no oil treatment (blanks) as 100%, the amount of moisture was evaluated after being treated with each sample. […]

[5] = evaluation of skin viscoelasticity (Cutometer); format: in vivo; details: inside human forearm, two hours after applying 10 μL; blank = 100%; above 100% = improvement
Protocol: [Evaluation of Skin Viscoelasticity]
With the volatile oil for external preparations for skin of the present invention, skin viscoelasticity was measured by the method shown below, and the skin viscoelasticity was evaluated.
(Measuring Equipment) Cutometer (from I.B.S. Co., Ltd.)
as §1
(Testing Method) Samples are applied inside a human forearm, and viscoelasticity is measured after two hours.
as §2, §3
(2) Before applying samples, viscoelasticity is measured at a site to be applied that is marked in a circle with 1 cm in diameter.
(3) Samples are dropped by 10 μL with a micropipette onto a measurement site that is marked in a circle with 1 cm in diameter, and are applied, to skin at the marking site.
(4) The viscoelasticity is measured at the measurement site two hours after being applied.
(Assessment) With the […] at measurement sites with no oil treatment (blanks) as 100%, skin viscoelasticity was evaluated after being treated with each sample. […]

[6] = order of volatility, sample spread on filter paper and dried; format: physicochemical; details: 0.1 g on filter paper of 110 mm diameter; rank by speed to be completely dry (1 = fastest)
Protocol: It is noted that for the order of volatility in Table 1, 0.1 g of each sample was spread on a filter paper of 110 mm in diameter, and the weight was measured after drying for two hours. Ranking was based on the order of the speed that it took the samples to be completely dry and 0 g in weight.

hair tensile strength = details: breaking load of healthy human hair, untreated with oil (blank) = 100%; above 100% = improvement; 25° C.
Protocol: (Measuring Equipment) FUDOH RHEO METER RTC from Rheotech Co., Ltd. (Measuring Condition) Measurement environment: Inside constant temperature chamber at 25° C.
(Hair Employed) Healthy Human Hair
as §2
Beforehand, a bundle of unbleached healthy hair for measurement is placed in a constant temperature chamber for one day.
as §6, §7
(3) After the sample is coated, excess oil is wiped off with a waste cloth made of paper (Trade Name: Kim Wipes).
(4) After ten human hairs are treated with each sample, hair diameter is measured with a diameter.
(5) The hair is fixed with a jag of an equipment, and is given a load by lowering a base onto which the hair is fixed.
(6) The load is recorded when the hair is broken by the load.
(Assessment) With the tensile strength of hair untreated with oil (blank) as 100%, tensile strength was evaluated after being treated with each sample. If there is an improvement in comparison with the blank, the number would be higher than 100%.

order of volatility [6] | SMILES | evaporated water quantity (%) [1] | smoothness (%) [2] | smoothness (%) [3] | water quantity in stratum corneum (%) [4] | skin viscoelasticity (%) [5] | tensile strength (%) (hair tensile strength)
3 | C[Si]1(C)O[Si](C)(C)O[Si](C)(C)O[Si](C)(C)O[Si](C)(C)O1 [compound 1] | 106% | 108% | 83% | 120% | 95% | 120%
1 | CC(CC(C)(C)C)CC(C)(C)C [compound 2, 2,2,4,6,6-pentamethylheptane] | 105% | 104% | 78% | 112% | 97% | 125%
